Test [1] deals with T1, PGM3 (N-Acetylglucosamine-phosphate Mutase) (Homo sapiens, UniProt O95394).
T1 sequence (O95394 1-542): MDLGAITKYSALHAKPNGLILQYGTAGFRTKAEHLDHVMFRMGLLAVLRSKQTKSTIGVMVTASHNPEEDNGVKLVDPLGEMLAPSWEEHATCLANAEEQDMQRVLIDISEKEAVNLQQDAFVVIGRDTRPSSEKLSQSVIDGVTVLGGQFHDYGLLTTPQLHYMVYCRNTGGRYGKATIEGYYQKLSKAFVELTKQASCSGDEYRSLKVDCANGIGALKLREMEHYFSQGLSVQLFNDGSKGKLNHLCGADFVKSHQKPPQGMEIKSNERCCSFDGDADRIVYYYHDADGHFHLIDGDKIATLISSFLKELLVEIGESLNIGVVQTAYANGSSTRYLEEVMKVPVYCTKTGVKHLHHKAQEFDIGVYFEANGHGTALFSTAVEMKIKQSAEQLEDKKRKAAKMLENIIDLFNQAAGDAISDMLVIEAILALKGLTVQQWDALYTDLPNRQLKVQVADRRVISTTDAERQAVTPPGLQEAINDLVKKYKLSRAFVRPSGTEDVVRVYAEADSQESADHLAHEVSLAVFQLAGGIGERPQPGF
Description: CETSA, Western blot (cell extract). Particulars: 30 min RT incubation of extract, heated 3 min at 49-70 °C or isothermal at 58 °C; prodrug tested, possible conversion to FR051 in lysate not excluded.

Test [2] concerns the target T1, PGM3 (N-Acetylglucosamine-phosphate Mutase). Nature of the test: ITDRF-CETSA, Western blot (cell extract). The test is classed as biochemical. Details: endogenous full-length protein in MDA-MB-231 soluble extract (freeze-thaw), detected by Western blot. Conditions: 30 min RT incubation of extract, heated 3 min at 58 °C; natural substrate. In general terms: A western blot detects proteins with antibodies after separation by electrophoresis.

On to `CC(=O)OC[C@H]1O[C@@H]2OC(C)=N[C@@H]2[C@@H](OC(C)=O)[C@@H]1OC(C)=O` [FR054, 2-methyl-(3,4,6-tri-O-acetyl-1,2-dideoxy-α-D-glucopyrano)-[2,1-d]-2-oxazoline], for which the CETSA result in test [1] is reported as “FR054 markedly increased the accumulation of PGM3 in the soluble fraction”.

`CC(=O)N[C@H]1C(O)O[C@H](COP(=O)(O)O)[C@@H](O)[C@@H]1O` (some centres unmarked) [GlcNAc-6-P]: the “ITDRF CETSA” value in test [2] is on record as “more potent binding than the natural substrate GlcNAc-6-P”.
